# From PubChem BioAssay (NCI)
#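 Step 1: Grow cells in 96-well plates. Step 2: Expose to compound for 48 hours at 5 concentrations. Step 3: Interpolate endpoints linearly; if unreached, use highest concentration. GI50 is the concentration that inhibits growth by half. TGI: total growth inhibition.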
# Columns and labels:
# Experiment in all cases: NCI tumour cell line growth inhibition, 48 h
# A549 NSCLC = system: A549 NSCLC
# SF-295 CNS = system: SF-295 CNS
# BT-549 breast = system: BT-549 breast
# ACHN renal = system: ACHN renal
# HCT-15 colon = system: HCT-15 colon
# K-562 leukemia = system: K-562 leukemia
# 786-0 renal = system: 786-0 renal
# SK-OV-3 ovarian = system: SK-OV-3 ovarian
# A498 renal = system: A498 renal
# SF-539 CNS = system: SF-539 CNS
# OVCAR-4 ovarian = system: OVCAR-4 ovarian
# NCI-H226 lung = system: NCI-H226 lung
# NCI/ADR-RES ovarian = system: NCI/ADR-RES ovarian
# EKVX NSCLC = system: EKVX NSCLC
# NCI-H460 lung = system: NCI-H460 lung
# OVCAR-5 ovarian = system: OVCAR-5 ovarian
# UACC-257 melanoma = system: UACC-257 melanoma
# CAKI-1 renal = system: CAKI-1 renal
# SF-268 CNS = system: SF-268 CNS
# MDA-MB-231 breast = system: MDA-MB-231 breast
# HS 578T breast = system: HS 578T breast
# LOX IMVI melanoma = system: LOX IMVI melanoma
# MALME-3M melanoma = system: MALME-3M melanoma
# SN12C renal = system: SN12C renal
# KM12 colon = system: KM12 colon
# PC-3 prostate = system: PC-3 prostate
# MCF7 breast = system: MCF7 breast
# SK-MEL-5 melanoma = system: SK-MEL-5 melanoma
# MDA-MB-435 = system: MDA-MB-435
# SNB-19 CNS = system: SNB-19 CNS
# U251 CNS = system: U251 CNS
# T-47D breast = system: T-47D breast
# NCI-H23 lung = system: NCI-H23 lung
# SK-MEL-28 melanoma = system: SK-MEL-28 melanoma
# DU-145 prostate = system: DU-145 prostate
# HOP-62 NSCLC = system: HOP-62 NSCLC
# COLO 205 colon = system: COLO 205 colon
# UACC-62 melanoma = system: UACC-62 melanoma
# UO-31 renal = system: UO-31 renal
# SNB-75 CNS = system: SNB-75 CNS
# SK-MEL-2 melanoma = system: SK-MEL-2 melanoma
# TK-10 renal = system: TK-10 renal
# OVCAR-3 ovarian = system: OVCAR-3 ovarian
# HCC-2998 colon = system: HCC-2998 colon
# OVCAR-8 ovarian = system: OVCAR-8 ovarian
# HL-60(TB) leukemia = system: HL-60(TB) leukemia
# CCRF-CEM leukemia = system: CCRF-CEM leukemia
# SR leukemia = system: SR leukemia
# RXF 393 renal = system: RXF 393 renal
# IGROV1 ovarian = system: IGROV1 ovarian
# NCI-H522 lung = system: NCI-H522 lung
# HT29 colon = system: HT29 colon
# MOLT-4 leukemia = system: MOLT-4 leukemia
# SW-620 colon = system: SW-620 colon
# M14 melanoma = system: M14 melanoma
# HCT-116 colon = system: HCT-116 colon
# RPMI-8226 leukemia = system: RPMI-8226 leukemia
# HOP-92 NSCLC = system: HOP-92 NSCLC
smiles,measurement,setting,value
O=c1c2c3c(sc2n2c(-c4cc(-c5ccccc5)nn4-c4ccccc4)nnc2n1Cc1ccccc1)CCCC3,GI50,A549 NSCLC,> 100 µM
same,TGI,A549 NSCLC,> 100 µM
same,GI50,SF-295 CNS,> 100 µM
same,TGI,SF-295 CNS,> 100 µM
same,GI50,BT-549 breast,> 100 µM
same,TGI,BT-549 breast,> 100 µM
same,GI50,ACHN renal,> 100 µM
same,TGI,ACHN renal,> 100 µM
same,GI50,HCT-15 colon,> 100 µM
same,TGI,HCT-15 colon,> 100 µM
same,GI50,K-562 leukemia,> 100 µM
same,TGI,K-562 leukemia,> 100 µM
same,GI50,786-0 renal,> 100 µM
same,TGI,786-0 renal,> 100 µM
same,GI50,SK-OV-3 ovarian,> 100 µM
same,TGI,SK-OV-3 ovarian,> 100 µM
same,GI50,A498 renal,> 100 µM
same,TGI,A498 renal,> 100 µM
same,GI50,SF-539 CNS,> 100 µM
same,TGI,SF-539 CNS,> 100 µM
same,GI50,OVCAR-4 ovarian,> 100 µM
same,TGI,OVCAR-4 ovarian,> 100 µM
same,GI50,NCI-H226 lung,> 100 µM
same,TGI,NCI-H226 lung,> 100 µM
same,GI50,NCI/ADR-RES ovarian,> 100 µM
same,TGI,NCI/ADR-RES ovarian,> 100 µM
same,GI50,EKVX NSCLC,> 100 µM
same,TGI,EKVX NSCLC,> 100 µM
same,GI50,NCI-H460 lung,> 100 µM
same,TGI,NCI-H460 lung,> 100 µM
same,GI50,OVCAR-5 ovarian,> 100 µM
same,TGI,OVCAR-5 ovarian,> 100 µM
same,GI50,UACC-257 melanoma,> 100 µM
same,TGI,UACC-257 melanoma,> 100 µM
same,GI50,CAKI-1 renal,> 100 µM
same,TGI,CAKI-1 renal,> 100 µM
same,GI50,SF-268 CNS,> 100 µM
same,TGI,SF-268 CNS,> 100 µM
same,GI50,MDA-MB-231 breast,> 100 µM
same,TGI,MDA-MB-231 breast,> 100 µM
same,GI50,HS 578T breast,48 µM
same,TGI,HS 578T breast,> 100 µM
same,GI50,LOX IMVI melanoma,> 100 µM
same,TGI,LOX IMVI melanoma,> 100 µM
same,GI50,MALME-3M melanoma,> 100 µM
same,TGI,MALME-3M melanoma,> 100 µM
same,GI50,SN12C renal,> 100 µM
same,TGI,SN12C renal,> 100 µM
same,GI50,KM12 colon,> 100 µM
same,TGI,KM12 colon,> 100 µM
same,GI50,PC-3 prostate,> 100 µM
same,TGI,PC-3 prostate,> 100 µM
same,GI50,MCF7 breast,> 100 µM
same,TGI,MCF7 breast,> 100 µM
same,GI50,SK-MEL-5 melanoma,> 100 µM
same,TGI,SK-MEL-5 melanoma,> 100 µM
same,GI50,MDA-MB-435,> 100 µM
same,TGI,MDA-MB-435,> 100 µM
same,GI50,SNB-19 CNS,> 100 µM
same,TGI,SNB-19 CNS,> 100 µM
same,GI50,U251 CNS,> 100 µM
same,TGI,U251 CNS,> 100 µM
same,GI50,T-47D breast,> 100 µM
same,TGI,T-47D breast,> 100 µM
same,GI50,NCI-H23 lung,> 100 µM
same,TGI,NCI-H23 lung,> 100 µM
same,GI50,SK-MEL-28 melanoma,> 100 µM
same,TGI,SK-MEL-28 melanoma,> 100 µM
same,GI50,DU-145 prostate,> 100 µM
same,TGI,DU-145 prostate,> 100 µM
same,GI50,HOP-62 NSCLC,> 100 µM
same,TGI,HOP-62 NSCLC,> 100 µM
same,GI50,COLO 205 colon,> 100 µM
same,TGI,COLO 205 colon,> 100 µM
same,GI50,UACC-62 melanoma,> 100 µM
same,TGI,UACC-62 melanoma,> 100 µM
same,GI50,UO-31 renal,> 100 µM
same,TGI,UO-31 renal,> 100 µM
same,GI50,SNB-75 CNS,12.1 µM
same,TGI,SNB-75 CNS,56.4 µM
same,GI50,SK-MEL-2 melanoma,> 100 µM
same,TGI,SK-MEL-2 melanoma,> 100 µM
same,GI50,TK-10 renal,> 100 µM
same,TGI,TK-10 renal,> 100 µM
same,GI50,OVCAR-3 ovarian,> 100 µM
same,TGI,OVCAR-3 ovarian,> 100 µM
same,GI50,HCC-2998 colon,> 100 µM
same,TGI,HCC-2998 colon,> 100 µM
O=C1C(Cl)=C(Nc2ccccc2)C(=O)c2ccccc21,GI50,A549 NSCLC,15.5 µM
same,TGI,A549 NSCLC,42.2 µM
same,GI50,SF-295 CNS,10.6 µM
same,TGI,SF-295 CNS,24.1 µM
same,GI50,OVCAR-8 ovarian,1.71 µM
same,TGI,OVCAR-8 ovarian,3.2 µM
same,GI50,BT-549 breast,1.7 µM
same,TGI,BT-549 breast,3.09 µM
same,GI50,ACHN renal,1.63 µM
same,TGI,ACHN renal,3.13 µM
same,GI50,HCT-15 colon,1.26 µM
same,TGI,HCT-15 colon,2.92 µM
same,GI50,K-562 leukemia,0.648 µM
same,TGI,K-562 leukemia,> 100 µM
same,GI50,786-0 renal,6.57 µM
same,TGI,786-0 renal,19.6 µM
same,GI50,SK-OV-3 ovarian,5.43 µM
same,TGI,SK-OV-3 ovarian,18.7 µM
same,GI50,HL-60(TB) leukemia,1.77 µM
same,TGI,HL-60(TB) leukemia,5.31 µM
same,GI50,A498 renal,8.93 µM
same,TGI,A498 renal,35.3 µM
same,GI50,SF-539 CNS,5.41 µM
same,TGI,SF-539 CNS,17.5 µM
same,GI50,OVCAR-4 ovarian,1.63 µM
same,TGI,OVCAR-4 ovarian,3 µM
same,GI50,NCI-H226 lung,2.18 µM
same,TGI,NCI-H226 lung,6.3 µM
same,GI50,NCI/ADR-RES ovarian,2.11 µM
same,TGI,NCI/ADR-RES ovarian,4.89 µM
same,GI50,EKVX NSCLC,2.21 µM
same,TGI,EKVX NSCLC,5.38 µM
same,GI50,NCI-H460 lung,27.2 µM
same,TGI,NCI-H460 lung,> 100 µM
same,GI50,OVCAR-5 ovarian,1.94 µM
same,TGI,OVCAR-5 ovarian,3.65 µM
same,GI50,UACC-257 melanoma,1.83 µM
same,TGI,UACC-257 melanoma,3.3 µM
same,GI50,CCRF-CEM leukemia,2.37 µM
same,TGI,CCRF-CEM leukemia,> 100 µM
same,GI50,CAKI-1 renal,1.73 µM
same,TGI,CAKI-1 renal,3.13 µM
same,GI50,SR leukemia,0.992 µM
same,TGI,SR leukemia,> 100 µM
same,GI50,SF-268 CNS,1.69 µM
same,TGI,SF-268 CNS,3.27 µM
same,GI50,MDA-MB-231 breast,1.58 µM
same,TGI,MDA-MB-231 breast,3.3 µM
same,GI50,HS 578T breast,3.05 µM
same,TGI,HS 578T breast,30.5 µM
same,GI50,LOX IMVI melanoma,0.856 µM
same,TGI,LOX IMVI melanoma,2.86 µM
same,GI50,RXF 393 renal,1.6 µM
same,TGI,RXF 393 renal,2.99 µM
same,GI50,MALME-3M melanoma,1.92 µM
same,TGI,MALME-3M melanoma,3.72 µM
same,GI50,IGROV1 ovarian,1.75 µM
same,TGI,IGROV1 ovarian,3.27 µM
same,GI50,SN12C renal,1.82 µM
same,TGI,SN12C renal,3.59 µM
same,GI50,KM12 colon,6.23 µM
same,TGI,KM12 colon,> 100 µM
same,GI50,NCI-H522 lung,1.66 µM
same,TGI,NCI-H522 lung,3.77 µM
same,GI50,PC-3 prostate,3.61 µM
same,TGI,PC-3 prostate,22.1 µM
same,GI50,HT29 colon,2.27 µM
same,TGI,HT29 colon,4.72 µM
same,GI50,MOLT-4 leukemia,3.34 µM
same,TGI,MOLT-4 leukemia,> 100 µM
same,GI50,MCF7 breast,1.5 µM
same,TGI,MCF7 breast,3.53 µM
same,GI50,SW-620 colon,1.09 µM
same,TGI,SW-620 colon,2.92 µM
same,GI50,SK-MEL-5 melanoma,1.5 µM
same,TGI,SK-MEL-5 melanoma,2.89 µM
same,GI50,MDA-MB-435,1.8 µM
same,TGI,MDA-MB-435,3.27 µM
same,GI50,SNB-19 CNS,2.22 µM
same,TGI,SNB-19 CNS,5.07 µM
same,GI50,U251 CNS,1.8 µM
same,TGI,U251 CNS,3.24 µM
same,GI50,M14 melanoma,1.88 µM
same,TGI,M14 melanoma,3.57 µM
same,GI50,HCT-116 colon,1.83 µM
same,TGI,HCT-116 colon,3.53 µM
same,GI50,NCI-H23 lung,1.92 µM
same,TGI,NCI-H23 lung,4.25 µM
same,GI50,SK-MEL-28 melanoma,1.97 µM
same,TGI,SK-MEL-28 melanoma,3.53 µM
same,GI50,DU-145 prostate,9.34 µM
same,TGI,DU-145 prostate,22 µM
same,GI50,RPMI-8226 leukemia,2.28 µM
same,TGI,RPMI-8226 leukemia,6.84 µM
same,GI50,HOP-62 NSCLC,12.8 µM
same,TGI,HOP-62 NSCLC,26.8 µM
same,GI50,COLO 205 colon,1.88 µM
same,TGI,COLO 205 colon,3.77 µM
same,GI50,UACC-62 melanoma,1.72 µM
same,TGI,UACC-62 melanoma,3.3 µM
same,GI50,UO-31 renal,1.41 µM
same,TGI,UO-31 renal,2.97 µM
same,GI50,SNB-75 CNS,1.83 µM
same,TGI,SNB-75 CNS,12 µM
same,GI50,HOP-92 NSCLC,1.28 µM
same,TGI,HOP-92 NSCLC,2.64 µM
same,GI50,SK-MEL-2 melanoma,1.87 µM
same,TGI,SK-MEL-2 melanoma,3.69 µM
same,GI50,TK-10 renal,11 µM
same,TGI,TK-10 renal,> 100 µM
same,GI50,OVCAR-3 ovarian,1.67 µM
same,TGI,OVCAR-3 ovarian,3.15 µM
same,GI50,HCC-2998 colon,2.15 µM
same,TGI,HCC-2998 colon,4.29 µM
